Counter-ions that a name gives are not always drawn.
Assays:
[1] = biological target: T1, human Adenosine A2a receptor (Homo sapiens, UniProt P29274); assay: Adenosine receptor TR-FRET binding assay (CA200645 displacement), A2a; conditions: 100 nM CA200645, CHO cell membranes, 2 hours at room temperature
T1 construct: expressed in transfected cells; host or cells: CHO cell membranes
Procedure: (§1) All FRET binding experiments were conducted at room temperature in white 384-well plates, in assay binding buffer containing 1×LabMed (Cisbio, France), 100 μg/mL saponin, 1% DMSO and 0.02% pluronic acid. Binding of the fluorescently labelled Adenosine receptor antagonist XAC (CA200645, FRET acceptor) to terbium-labelled A1, A2a, A2b and A3 adenosine receptors (FRET donors) was detected by time-resolved FRET due to the close proximity of the donor and acceptor in a binding event. To investigate the ability of unlabelled test compounds to bind to Adenosine A1, A2a, A2b and A3 receptors, dose response curves were constructed that determined the ability of a range of concentrations to inhibit the binding of 30 nM CA200645 to the A2b receptor and 100 nM CA200645 to the A1, A2a, and A3 receptor.
(§2) Serial dilution (1:3 dilutions) of test compounds in neat DMSO and transfer of a 400 nL sample of test compound into the assay plate was carried out using the Mosquito (TTP Labtech, UK). The compound samples were incubated for 2 hours at room temperature with a fixed concentration of CA200645 defined for each receptor (see above) and CHO cell membranes containing the human Adenosine A1 (0.5 μg/well), A2a (0.3 μg/well), A2b (1 μg/well) or A3 (1 μg/well) receptor in 40 μL of assay buffer. Total and non-specific binding of CA200645 was determined in the absence and presence of 10 μM XAC, respectively. Following 2 hours incubation, the level of CA200645 binding was detected on a Pherastar FSX (BMG Labtech, Germany) using standard TR-FRET settings. The terbium donor was excited with three laser flashes at a wavelength of 337 nm, and donor and acceptor emission was detected at 620 nm and 665 nm wavelengths, respectively. FRET ratios were obtained by multiplying the acceptor/donor ratio value by 10,000. Specific binding was determined by subtracting the non-specific binding FRET ratio from the total binding FRET ratio. Compound IC50 curves were analysed using GraphPad Prism 7.0 (GraphPad, USA) and Ki affinity values were determined from the obtained IC50 values using the method of Cheng and Prusoff.

[2] = biological target: T2, human Adenosine A2b receptor (Homo sapiens, UniProt P29275); assay: Adenosine receptor TR-FRET binding assay (CA200645 displacement), A2b; conditions: 30 nM CA200645, CHO cell membranes, 2 hours at room temperature
T2 construct: expressed in transfected cells; host or cells: CHO cell membranes
T2 sequence (P29275 1-332): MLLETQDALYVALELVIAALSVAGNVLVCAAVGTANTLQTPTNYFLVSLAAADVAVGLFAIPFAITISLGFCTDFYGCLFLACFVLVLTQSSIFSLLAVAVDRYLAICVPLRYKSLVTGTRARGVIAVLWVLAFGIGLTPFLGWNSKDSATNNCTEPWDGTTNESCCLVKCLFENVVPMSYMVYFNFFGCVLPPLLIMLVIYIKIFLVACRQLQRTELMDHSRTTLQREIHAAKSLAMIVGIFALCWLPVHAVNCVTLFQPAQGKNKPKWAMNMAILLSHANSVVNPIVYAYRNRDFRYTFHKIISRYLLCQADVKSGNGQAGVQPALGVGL

[3] = biological target: T3, human Adenosine A1 receptor (Homo sapiens, UniProt P30542); assay: Adenosine receptor TR-FRET binding assay (CA200645 displacement), A1
T3 sequence (P30542 1-326): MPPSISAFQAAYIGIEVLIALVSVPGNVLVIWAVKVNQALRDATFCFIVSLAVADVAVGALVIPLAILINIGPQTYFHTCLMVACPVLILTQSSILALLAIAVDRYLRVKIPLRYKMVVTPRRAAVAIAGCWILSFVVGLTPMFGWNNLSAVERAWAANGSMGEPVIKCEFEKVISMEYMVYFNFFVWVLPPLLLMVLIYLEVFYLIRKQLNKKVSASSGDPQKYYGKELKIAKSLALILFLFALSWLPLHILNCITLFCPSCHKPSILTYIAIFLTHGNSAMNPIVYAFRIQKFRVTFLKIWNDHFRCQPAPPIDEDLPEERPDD

[4] = biological target: T4, human Adenosine A3 receptor (Homo sapiens, UniProt P0DMS8); assay: Adenosine receptor TR-FRET binding assay (CA200645 displacement), A3
T4 sequence (P0DMS8 1-318): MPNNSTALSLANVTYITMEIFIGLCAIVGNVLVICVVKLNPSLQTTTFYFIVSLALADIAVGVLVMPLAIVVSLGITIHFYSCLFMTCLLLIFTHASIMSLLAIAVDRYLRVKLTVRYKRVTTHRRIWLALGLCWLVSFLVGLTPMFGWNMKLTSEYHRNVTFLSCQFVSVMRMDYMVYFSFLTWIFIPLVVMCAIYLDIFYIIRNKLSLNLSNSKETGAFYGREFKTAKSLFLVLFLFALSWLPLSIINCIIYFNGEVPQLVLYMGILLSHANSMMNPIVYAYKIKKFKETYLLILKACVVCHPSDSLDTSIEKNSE
Procedure: as §1, §2

T1 sequence (P29274 whole entry): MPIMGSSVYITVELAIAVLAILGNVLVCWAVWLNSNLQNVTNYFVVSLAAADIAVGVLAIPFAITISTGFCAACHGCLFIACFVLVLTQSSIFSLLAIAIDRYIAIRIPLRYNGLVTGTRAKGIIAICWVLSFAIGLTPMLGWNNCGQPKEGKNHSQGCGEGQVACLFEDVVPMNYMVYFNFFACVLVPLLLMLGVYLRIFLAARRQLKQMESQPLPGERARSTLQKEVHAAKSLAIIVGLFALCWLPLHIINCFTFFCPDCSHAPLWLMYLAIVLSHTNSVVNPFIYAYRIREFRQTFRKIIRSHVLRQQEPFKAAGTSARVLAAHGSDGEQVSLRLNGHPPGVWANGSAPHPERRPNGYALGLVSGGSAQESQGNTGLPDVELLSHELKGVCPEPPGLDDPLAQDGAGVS

| Ki [1] [nM] | Ki [2] [nM] | Ki [3] [nM] | Ki [4] [nM] | SMILES |
| --- | --- | --- | --- | --- |
| 16.4 | 68 | 279 | > 1000 | Cc1cc(-c2c(-c3cccc(C#N)c3)nn3ccc(C(=O)NC4(C(N)=O)CCNCC4)nc23)cc(Cl)n1 (single isomer, unassigned) [Example 7.17, N-(4-Carbamoyl-4-piperidyl)-3-(2-chloro-6-methyl-4-pyridyl)-2-(3-cyanophenyl)pyrazolo[1,5-a]pyrimidine-5-carboxamide] |
| 13.7 | 1 | 303 | 1180 | Cc1cc(-c2c(-c3cccc(C#N)c3)nn3ccc(NS(C)(=O)=O)nc23)cc(Cl)n1 [Example 16, N-[3-(2-Chloro-6-methyl-4-pyridyl)-2-(3-cyanophenyl)pyrazolo[1,5-a]pyrimidin-5-yl]methanesulfonamide] |
| 5.8 | 22 | 175 | > 1000 | Cc1cc(-c2c(-c3cccc(C#N)c3)nn3ccc(C(=O)NCC4CNC(=O)C4)nc23)cc(C)n1 (stereo not shown) [Example 92.26] |
| 29.8 | 1750 | 38 | 771 | CC(C)(C)OC(=O)N1CCC[C@H]1CNc1ccn2nc(-c3ccco3)c(C#N)c2n1 [Example 37.4] |
| 7.5 | 27 | 674 | > 1000 | Cc1cc(-c2c(-c3cccc(C#N)c3)nn3ccc(N[C@H]4CCOC4)nc23)cc(Cl)n1 [Example 2.25] |
| 45.3 | 346 | 837 | > 1000 | Cc1cc(-c2c(-c3cccc(C#N)c3)nn3ccc(NC45CC(C(=O)O)(C4)C5)nc23)cc(Cl)n1 [Example 2.38] |
| 91.9 | 17 | 124 | > 1000 | CCn1nccc1-c1c(-c2cccc(C#N)c2)nn2ccc(NCc3nnc[nH]3)nc12 [Example 33.5] |
| 1.3 | 19 | 107 | > 1000 | Cc1cc(-c2c(-c3cccc(C#N)c3)nn3ccc(C(=O)NCCN4CCN(c5ccccc5)CC4)nc23)cc(Cl)n1 [Example 5.4] |
| 141 | 2700 | 521 | > 1000 | N#Cc1c(-c2ccco2)nn2ccc(NC[C@H]3CCCNC3)nc12 [Example 56, 2-(2-Furyl)-5-(3-piperidylmethylamino)pyrazolo[1,5-a]pyrimidine-3-carbonitrile hydrochloride] |
| 587 | 6240 | 649 | 160 | c1coc(-c2cc3nc(NCc4nccs4)ccn3n2)c1 [Example 74, 2-(2-Furyl)-N-(thiazol-2-ylmethyl)pyrazolo[1,5-a]pyrimidin-5-amine] |
| 153 | 1460 | 1140 | 1740 | OCc1c(-c2ccco2)nn2ccc(NCc3ccccc3)nc12 [Example 75, [5-(Benzylamino)-2-(2-furyl)pyrazolo[1,5-a]pyrimidin-3-yl]methanol] |
| 93.6 | 5500 | 1950 | 1770 | CC(C)(C)OC(=O)N1CC=C(c2ccn3nc(-c4ccco4)c(C#N)c3n2)CC1 [Example 40, tert-butyl 4-[3-cyano-2-(2-furyl)pyrazolo[1,5-a]pyrimidin-5-yl]-3,6-dihydro-2H-pyridine-1-carboxylate] |
| 19.2 | 115 | 179 | > 1000 | Cc1cc(-c2c(-c3cccc(C#N)c3)nn3ccc(C(=O)NCC4CCC(=O)NC4)nc23)cc(C)n1 (stereo not shown) [Example 92.19] |
| 10.7 | 43 | 317 | > 1000 | Cc1cc(-c2c(-c3cccc(C#N)c3)nn3ccc(NC4CCS(=O)(=O)CC4)nc23)cc(Cl)n1 [Example 2.27] |
| 237 | 2230 | 1570 | 5140 | N#Cc1c(-c2ccco2)nn2ccc(N3CCNCC3)nc12 [Example 41, 2-(2-Furyl)-5-piperazin-1-yl-pyrazolo[1,5-a]pyrimidine-3-carbonitrile] |
| 146 | 34 | 14 | 2080 | Nc1ccn2nc(-c3ccco3)c(-c3ccncc3)c2n1 [Example 79, 2-(2-Furyl)-3-(4-pyridyl)pyrazolo[1,5-a]pyrimidin-5-amine] |
| 17.1 | 102 | 593 | > 1000 | Cc1cc(-c2c(-c3cccc(C#N)c3)nn3ccc(NCc4ncc[nH]4)nc23)cc(Cl)n1 [Example 2.32] |
| 0.4 | 35 | 99 | > 1000 | C=C(C)[C@H](C)NC(=O)c1ccn2nc(-c3cccc(C#N)c3)c(-c3cc(C)nc(C)c3)c2n1 [Example 99, 2-(3-Cyanophenyl)-N-[(1S)-1,2-dimethylallyl]-3-(2,6-dimethyl-4-pyridyl)pyrazolo[1,5-a]pyrimidine-5-carboxamide] |
| 13.9 | 29 | 20 | 646 | N#Cc1cccc(-c2nn3ccc(N)nc3c2-c2ccnnc2)c1 [Example 1.2] |
| 0.3 | 20 | 224 | > 1000 | Cc1cc(-c2c(-c3cccc(C#N)c3)nn3ccc(C(=O)NCCC(C)(C)O)nc23)cc(Cl)n1 [Example 5.3] |
| 1.2 | 3 | 8 | > 1000 | Cc1cc(-c2c(-c3cccc(C#N)c3)nn3ccc(N[C@@H]4CCNC4)nc23)cc(Cl)n1 [Example 4.3] |
| 0.4 | 28 | 64 | > 1000 | Cc1cc(-c2c(-c3cccc(C#N)c3)nn3ccc(C(=O)N[C@@H](C)C(C)(C)O)nc23)cc(CO)n1 [Example 100, 2-(3-Cyanophenyl)-N-[(1S)-2-hydroxy-1,2-dimethyl-propyl]-3-[2-(hydroxymethyl)-6-methyl-4-pyridyl]pyrazolo[1,5-a]pyrimidine-5-carboxamide] |
| 2.9 | 24 | 459 | > 1000 | Cc1cc(-c2c(-c3cccc(C#N)c3)nn3ccc(C(=O)N[C@@H]4CN(C)C[C@H]4O)nc23)cc(C)n1 [Example 92.32] |
| 14.8 | 10 | 135 | > 1000 | Cc1cc(-c2c(-c3cccc(C#N)c3)nn3ccc(C(=O)N4CCOCC4)nc23)cc(Cl)n1 [Example 5.7] |
| 15.2 | 159 | 126 | > 1000 | CCn1nccc1-c1c(-c2cccc(C#N)c2)nn2ccc(N3CC4CCC(C3)O4)nc12 [Example 33.2] |
| 5.7 | 23 | 145 | > 1000 | Cc1cc(-c2c(-c3cccc(C#N)c3)nn3ccc(N4CCN[C@@H](C(C)(C)O)C4)nc23)cc(Cl)n1 [Example 2.40] |
| 25.1 | 430 | 179 | > 1000 | Cc1cc(-c2c(-c3cccc(C#N)c3)nn3ccc(N4CC[C@@H](C(=O)O)C4)nc23)cc(Cl)n1 [Example 2.36] |
| 360 | 108 | 46 | > 1000 | Cc1cc(-c2c(-c3cccc(C#N)c3)nn3ccc(N)nc23)cc2ncnn12 [Example 27.5, 3-[5-Amino-3-(5-methyl-[1,2,4]triazolo[1,5-a]pyridin-7-yl)pyrazolo[1,5-a]pyrimidin-2-yl]benzonitrile] |
| 10.5 | 971 | 158 | 1010 | Cc1cccnc1CNc1ccn2nc(-c3ccco3)c(C(N)=O)c2n1 [Example 38, 2-(2-Furyl)-5-[(3-methyl-2-pyridyl)methylamino]pyrazolo[1,5-a]pyrimidine-3-carboxamide] |
| 13 | 57 | 652 | > 1000 | Cc1cc(-c2c(-c3cccc(C#N)c3)nn3ccc(C(=O)NC[C@@H]4CCC(=O)N4)nc23)cc(C)n1 [Example 92.33] |

| SMILES | Ki [1] [nM] | Ki [2] [nM] | Ki [3] [nM] | Ki [4] [nM] |
| --- | --- | --- | --- | --- |
| CCn1nccc1-c1c(-c2cccc(C#N)c2)nn2ccc(N3CC4CCC(C3)N4C)nc12 [Example 33.3] | 28.6 | 710 | 67 | > 1000 |
